# In article PMC7181201, “Dual P-Glycoprotein and CA XII Inhibitors: A New Strategy to Reverse the P-gp Mediated Multidrug Resistance (MDR) in Cancer Cells” (Molecules, 2020):
# Values joined by “and” are separate entries in the source; they are usually repeats but may differ in a detail not shown here. Equal entries are not always repeated.
# Legend:
# K562/DOX cells [1] = assay: Enhancement of doxorubicin cytotoxicity on K562/DOX cells (MTT); format: cell-based, human; settings: 72 h
# Protocol: (§1) To evaluate the enhancement of doxorubicin toxicity in the presence of the tested compounds, the cells, in exponential growth phase, were seeded at 10^4 cells/well and solutions of either compounds or doxorubicin, or a solution of doxorubicin in combination with the compounds, were added to the wells repeated in quadruplicate. […] The MTT working solution was then added and plates were further incubated for 3 h. Following incubation cells and formazan crystals were inspected microscopically. The supernatant was then carefully removed by slow aspiration and the formazan crystals were dissolved in […] of acidified isopropanol solution. The absorbance of the solution was then read on an automated plate reader at a wavelength of 570 nm. The increase in the toxicity of doxorubicin was quantified by the ratio between the growth of the cell sample treated with IC20 of doxorubicin and that of the cell sample treated with IC20 of doxorubicin in combination with the various concentrations of the tested compounds.
# LoVo/DOX cells [2] = assay: Enhancement of doxorubicin cytotoxicity on LoVo/DOX cells (MTT); format: cell-based, human; settings: 72 h
# Protocol: as §1
# hCA IX = molecular target: T1, hCA IX (Homo sapiens, UniProt Q16790); assay: Stopped-flow CO2 hydrase assay, hCA IX; format: biochemical; settings: stopped flow, mean from 3 assays
# T1 construct: made in house
# Protocol: (§2) An SX.18MV-R Applied Photophysics (Oxford, UK) stopped-flow instrument was used to assay the catalytic/inhibition of various CA isozymes. […] Saturated CO2 solutions in water at 25 °C were used as a substrate. Stock solutions of inhibitors were prepared at a concentration of 10 μM (in DMSO-water 1:1, v/v) and dilutions up to 0.01 nM done with the assay buffer mentioned above. […] Inhibitor and enzyme solutions were preincubated together for 10 min at room temperature prior to the assay, in order to allow for the formation of the E–I complex. […] The inhibition constants were obtained by non-linear least-squares methods using the Cheng–Prusoff equation, as reported earlier, and represent the mean from at least three different determinations. All CA isozymes used here were recombinant proteins obtained as reported earlier by our group.
# hCA I = molecular target: T2, hCA I (Homo sapiens, UniProt P00915); assay: Stopped-flow CO2 hydrase assay, hCA I; format: biochemical; settings: mean from 3 assays
# T2 construct: made in house
# Protocol: as §2
# hCA XII = molecular target: T3, hCA XII (Homo sapiens, UniProt O43570); assay: Stopped-flow CO2 hydrase assay, hCA XII; format: biochemical; settings: stopped flow, mean from 3 assays
# T3 construct: made in house
# Protocol: as §2
# P-gp [3] = molecular target: T4, P-gp (Homo sapiens, UniProt P08183); assay: Rhodamine-123 uptake test on LoVo/DOX cells (flow cytometry); format: cell-based
# T4 construct: doxorubicin resistant K562/DOX cell line overexpresses almost exclusively the transporter membrane protein P-gp; endogenous in cells; host or cells: K562/DOX (doxorubicin-selected human erythroleukemia cells)
# Protocol: The selected compounds were preliminary studied at 3, 10 and 30 µM concentrations by the MTT (3-(4,5-dimethylthiazolyl-2)-2,5-diphenyltetrazolium bromide) assay to evaluate their intrinsic cytotoxicity on LoVo/DOX cell line.
# (§3) An aliquot of cells (control) was incubated with the fluorochrome in the absence of inhibitors.
# (§4) At the end of the uptake, cells were sedimented, washed twice in ice-cold PBS, placed in PBS on ice, and kept in the dark until flow cytometric analysis.
# (§5) The histograms were generated by program GraphPad Prism 5 (GraphPad Prism software, Inc., San Diego, CA, USA); the data were obtained from the ratio between the average fluorescence intensity of the samples preincubated with the compounds under study and subsequently exposed to rhodamine, and the fluorescence of the sample exposed only to the rhodamine.
# P-gp [4] = molecular target: T4, P-gp; assay: Rhodamine-123 uptake test on K562/DOX cells (flow cytometry); format: cell-based
# Protocol: The results were expressed as the FR (fluorescence ratio), which is the ratio between the average fluorescence intensity of rhodamine in the presence and in the absence of modulators. Value 1 was attributed to the average fluorescence intensity of the samples exposed only to rhodamine.
# as §3, §4, §5
# hCA II = molecular target: T5, hCA II (Homo sapiens, UniProt P00918); assay: Stopped-flow CO2 hydrase assay, hCA II; format: biochemical; settings: stopped flow, mean from 3 assays
# T5 construct: made in house
# Protocol: as §2
# LoVo cells = assay: Doxorubicin IC50 on parental LoVo cells (MTT); settings: Homo sapiens, 72 h, read-out: doxorubicin IC50
# Protocol: (§6) For the LoVo/DOX cell line, the doxorubicin growth inhibition was determined by the MTT assay and the IC50 and IC20 values were determined. Approximately 10^4 cells/well were plated onto 96-well plates and allowed to attach for 24 h before treatment with a range of drug concentrations from 3 × 10^−11 to 3 × 10^−5 M for 3 days; each concentration was repeated four times. At the end of the incubation the cells were processed according to the MTT protocol [43] and the optical density of the chromogenic product was measured at 570 nm. IC50 and IC20 values were determined graphically from relative survival curves obtained by GraphPad Prism 5 software (GraphPad, San Diego, CA, USA).
# (§7) The resistance index to doxorubicin of the two resistant cell lines was obtained from the ratio between the doxorubicin IC50 (µM) values on the resistant and parental lines.
# K562/DOX cells [5] = system: K562/DOX cells; set-up: method as in PMID 30947123; settings: cited from earlier work
# LoVo/DOX cells [6] = assay: Doxorubicin IC50 and IC20 evaluation on LoVo/DOX cells (MTT)
# Protocol: as §6, §7
# [7] = doxorubicin 0.5 µM (IC20) + compound 3 µM
# [8] = doxorubicin 0.5 µM (IC20) + compound 10 µM
# [9] = doxorubicin 0.3 µM (IC20) + compound 3 µM
# [10] = doxorubicin 0.3 µM (IC20) + compound 10 µM
# T4 sequence (P08183 whole entry): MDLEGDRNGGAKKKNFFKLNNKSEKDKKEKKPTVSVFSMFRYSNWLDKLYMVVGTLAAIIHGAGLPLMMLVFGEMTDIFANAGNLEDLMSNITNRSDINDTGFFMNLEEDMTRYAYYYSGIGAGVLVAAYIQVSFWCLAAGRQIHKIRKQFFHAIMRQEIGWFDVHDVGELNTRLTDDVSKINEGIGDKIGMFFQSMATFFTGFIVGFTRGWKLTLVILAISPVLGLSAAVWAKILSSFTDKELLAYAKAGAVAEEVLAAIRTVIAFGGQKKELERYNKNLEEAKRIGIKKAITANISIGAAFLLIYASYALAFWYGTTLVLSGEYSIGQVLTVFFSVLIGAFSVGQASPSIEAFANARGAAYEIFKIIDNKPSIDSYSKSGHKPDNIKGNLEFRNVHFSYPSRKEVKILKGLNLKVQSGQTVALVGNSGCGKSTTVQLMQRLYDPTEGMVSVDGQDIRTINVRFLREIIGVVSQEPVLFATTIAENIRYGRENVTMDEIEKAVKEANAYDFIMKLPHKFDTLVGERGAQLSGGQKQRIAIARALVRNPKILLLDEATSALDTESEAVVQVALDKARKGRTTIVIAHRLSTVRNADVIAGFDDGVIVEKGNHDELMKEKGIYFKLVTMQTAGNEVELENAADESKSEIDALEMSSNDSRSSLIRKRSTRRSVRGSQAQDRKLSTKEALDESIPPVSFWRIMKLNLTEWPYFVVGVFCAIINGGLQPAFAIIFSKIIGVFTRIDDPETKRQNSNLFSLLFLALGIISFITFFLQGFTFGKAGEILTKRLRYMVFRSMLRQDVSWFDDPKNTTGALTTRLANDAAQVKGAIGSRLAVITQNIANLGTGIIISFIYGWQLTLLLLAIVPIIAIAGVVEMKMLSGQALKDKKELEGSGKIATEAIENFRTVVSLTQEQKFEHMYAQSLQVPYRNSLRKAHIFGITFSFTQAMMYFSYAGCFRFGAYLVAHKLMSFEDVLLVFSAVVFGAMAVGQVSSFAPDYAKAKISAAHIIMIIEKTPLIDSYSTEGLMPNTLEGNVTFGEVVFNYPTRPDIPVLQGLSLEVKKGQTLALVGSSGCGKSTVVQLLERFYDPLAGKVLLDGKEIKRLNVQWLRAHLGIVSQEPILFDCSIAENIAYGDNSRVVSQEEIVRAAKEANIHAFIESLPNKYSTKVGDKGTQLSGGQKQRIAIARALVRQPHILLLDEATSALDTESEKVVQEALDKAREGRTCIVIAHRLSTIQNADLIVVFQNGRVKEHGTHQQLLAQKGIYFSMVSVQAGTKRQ
# T2 sequence (P00915 whole entry): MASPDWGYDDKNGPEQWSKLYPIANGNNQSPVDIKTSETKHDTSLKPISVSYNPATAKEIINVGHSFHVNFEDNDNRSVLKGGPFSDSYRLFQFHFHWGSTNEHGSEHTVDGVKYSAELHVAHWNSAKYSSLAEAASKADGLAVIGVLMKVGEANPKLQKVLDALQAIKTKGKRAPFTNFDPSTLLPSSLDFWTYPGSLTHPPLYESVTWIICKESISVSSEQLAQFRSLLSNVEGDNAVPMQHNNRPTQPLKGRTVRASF
# T3 sequence (O43570 25-354): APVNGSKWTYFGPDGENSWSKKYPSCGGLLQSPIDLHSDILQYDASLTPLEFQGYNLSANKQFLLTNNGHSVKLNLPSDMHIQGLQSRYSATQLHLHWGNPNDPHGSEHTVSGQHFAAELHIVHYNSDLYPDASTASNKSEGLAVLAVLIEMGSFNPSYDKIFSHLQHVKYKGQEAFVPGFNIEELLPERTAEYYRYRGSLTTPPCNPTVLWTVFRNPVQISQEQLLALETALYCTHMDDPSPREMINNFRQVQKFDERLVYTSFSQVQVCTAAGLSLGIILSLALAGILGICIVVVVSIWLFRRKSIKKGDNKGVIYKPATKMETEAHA
Compound,Cell Growth (%) (K562/DOX cells [1]; [7]),Cell Growth (%) (K562/DOX cells [1]; [8]),Cell Growth (%) (LoVo/DOX cells [2]; [9]),Cell Growth (%) (LoVo/DOX cells [2]; [10]),Ki (hCA IX),Ki (hCA I),Ki (hCA XII),"FR (fluorescence ratio, Rhd 123 uptake with/without modulator) (P-gp [4]; compound 3 µM)","FR (fluorescence ratio, Rhd 123 uptake with/without modulator) (P-gp [4]; compound 30 µM)",Ki (hCA II),"FR (fluorescence ratio, Rhd 123 uptake) (P-gp [3]; compound 10 µM)",further results
"COc1ccc(CCN(C)CCCC(C#N)(c2ccc(OC)c(OC)c2)C(C)C)cc1OC (stereo not drawn) [Ver, verapamil, reference compound]",69.0 ± 0.03%,62.0 ± 0.1%,54.0 ± 0.06%,51.0 ± 0.09%,–,–,–,–,–,–,–,"Cell Growth (%) (LoVo/DOX cells [2]; doxorubicin 0.3 µM (IC20) + compound 10 µM, listed as verapamil): 51.0%"
"CN(CCCCCOC(=O)c1ccc(S(N)(=O)=O)cc1)CCCOC(=O)c1c2ccccc2cc2ccccc12 [Compound 26, 3-(methyl(5-((4-sulfamoylbenzoyl)oxy)pentyl)amino)propyl anthracene-9-carboxylate]",77.9 ± 6.1%,74.0 ± 2.6%,82.0 ± 2.0%,58.2 ± 5.9%,0.241 µM,0.339 µM,0.0234 µM,2.10,4.45,0.0812 µM,–,"FR (fluorescence ratio, Rhd 123 uptake) (P-gp [3]; compound 3 µM): negligible"
"COc1cc(/C=C/C(=O)OCCCCCCCN(C)CCOC(=O)c2ccc(S(N)(=O)=O)cc2)cc(OC)c1OC [Compound 21, (E)-2-(methyl(7-((3-(3,4,5-trimethoxyphenyl)acryloyl)oxy)heptyl)amino)ethyl 4-sulfamoyl benzoate]",78.8 ± 10.2%,68.7 ± 3.6%,82.0 ± 2.7%,59.0 ± 3.3%,0.0684 µM,0.533 µM,0.0352 µM,1.30,3.70,0.0489 µM,–,"FR (fluorescence ratio, Rhd 123 uptake) (P-gp [3]; compound 3 µM): negligible"
"COc1cc(/C=C/C(=O)OCCCCCCCN(C)CCOC(=O)COc2ccc3ccc(=O)oc3c2)cc(OC)c1OC [Compound 7, (E)-7-(methyl(2-(2-((2-oxo-2H-chromen-7-yl)oxy)acetoxy)ethyl)amino)heptyl 3-(3,4,5-trimethoxyphenyl)acrylate]",78.1 ± 4.9%,–,61.0% and 61.0 ± 3.3%,34.9% and 34.9 ± 8.1%,0.0297 µM,> 10 µM,0.0091 µM,2.08,4.48,> 10 µM,12.60,–
"COc1cc(/C=C/C(=O)OCCCCCCN(C)CCCOC(=O)COc2ccc3ccc(=O)oc3c2)cc(OC)c1OC [Compound 5, (E)-6-(methyl(3-(2-((2-oxo-2H-chromen-7-yl)oxy)acetoxy)propyl)amino)hexyl 3-(3,4,5-trimethoxyphenyl)acrylate]",51.7% and 51.7 ± 3.0%,–,58.0% and 58.0 ± 2.4%,51.0% and 51.0 ± 1.9%,0.0267 µM,> 10 µM,0.0064 µM,3.67,5.85,> 10 µM,6.30,–
"COc1cc(C(=O)OCCCCCCCN(C)CCOC(=O)c2ccc(S(N)(=O)=O)cc2)cc(OC)c1OC [Compound 25, 7-(methyl(2-((4-sulfamoylbenzoyl)oxy)ethyl)amino)heptyl 3,4,5-trimethoxybenzoate]",80.3 ± 5.9%,76.0 ± 3.7%,81.7 ± 2.0%,–,0.117 µM,0.0427 µM,0.008 µM,1.44,3.50,0.0902 µM,–,"FR (fluorescence ratio, Rhd 123 uptake) (P-gp [3]; compound 3 µM): negligible"
"COc1cc(/C=C/C(=O)OCCCN(C)CCCCCOC(=O)COc2ccc3ccc(=O)oc3c2)cc(OC)c1OC [Compound 2, (E)-3-(methyl(5-(2-((2-oxo-2H-chromen-7-yl)oxy)acetoxy)pentyl)amino)propyl 3-(3,4,5-trimethoxyphenyl)acrylate]",85.6 ± 4.7%,65.0 ± 5.2%,82.7 ± 10.2%,41.5% and 41.5 ± 7.3%,0.0474 µM,> 10 µM,0.0089 µM,1.57,5.81,> 10 µM,10.50,–
"COc1cccc2c1C(=O)c1c(O)c3c(c(O)c1C2=O)C[C@@](O)(C(=O)CO)C[C@@H]3O[C@H]1C[C@H](N)[C@H](O)[C@H](C)O1 [doxo, doxorubicin]",–,–,–,–,–,–,–,–,–,–,–,"activity at 0.5 µM (K562/DOX cells [1]; Homo sapiens, doxorubicin 0.5 µM alone, read-out: Cell Growth (%)): 80 ± 3.6%; IC50 (LoVo cells): 0.063 ± 0.0066 µM; IC50 (K562/DOX cells [5]; K562/DOX cells ref 38, read-out: doxorubicin IC50): 2.47 ± 0.25 µM; IC20 (K562/DOX cells [5]; K562/DOX cells, extrapolated from earlier cytotoxicity curves ref 38, read-out: doxorubicin IC20): 0.5 µM; resistance index to doxorubicin (IC50 resistant/parental) (K562/DOX cells [5]; K562/DOX vs K562 ref 38): 73; activity at 0.3 µM (LoVo/DOX cells [2]; Homo sapiens, doxorubicin 0.3 µM alone, read-out: Cell Growth (%)): 80 ± 2.5%; IC50 (LoVo/DOX cells [6]; Homo sapiens, LoVo, 72 h, read-out: doxorubicin IC50): 0.85 ± 0.084 µM; IC20 (LoVo/DOX cells [6]; Homo sapiens, LoVo, read-out: doxorubicin IC20): 0.3 µM; resistance index to doxorubicin (IC50 resistant/parental) (LoVo/DOX cells [6]; LoVo/DOX vs LoVo): 13.5"
"COc1cc(C(=O)OCCCN(C)CCCCCOC(=O)COc2ccc3ccc(=O)oc3c2)cc(OC)c1OC [Compound 9, 3-(methyl(5-(2-((2-oxo-2H-chromen-7-yl)oxy)acetoxy)pentyl)amino)propyl 3,4,5-trimethoxy benzoate]",–,–,–,–,0.133 µM,> 10 µM,0.0092 µM,1.00,3.95,> 10 µM,–,–
"COc1cc(/C=C/C(=O)OCCCCCCCN(C)CCCCCCCOC(=O)c2ccc(S(N)(=O)=O)cc2)cc(OC)c1OC [Compound 22, (E)-7-(methyl(7-((3-(3,4,5-trimethoxyphenyl)acryloyl)oxy)heptyl)amino)heptyl 4-sulfamoyl benzoate]",–,–,–,–,0.172 µM,0.0737 µM,0.0967 µM,2.85,3.20,0.445 µM,–,–
"COc1cc(/C=C/C(=O)OCCCCCCCN(C)CCCCCCCOC(=O)COc2ccc3ccc(=O)oc3c2)cc(OC)c1OC [Compound 8, (E)-7-(methyl(7-(2-((2-oxo-2H-chromen-7-yl)oxy)acetoxy)heptyl)amino)heptyl 3-(3,4,5-trimethoxyphenyl)acrylate]",82.0 ± 5.9%,–,68.0% and 68.0 ± 2.9%,32.2% and 32.2 ± 10.7%,0.0242 µM,> 10 µM,0.0071 µM,2.33,4.15,> 10 µM,9.90,–
"COc1cc(/C=C/C(=O)OCCCCCCN(C)CCCCOC(=O)COc2ccc3ccc(=O)oc3c2)cc(OC)c1OC [Compound 6, (E)-6-(methyl(4-(2-((2-oxo-2H-chromen-7-yl)oxy)acetoxy)butyl)amino)hexyl 3-(3,4,5-trimethoxyphenyl)acrylate]",–,–,–,–,0.0402 µM,> 10 µM,0.0364 µM,1.39,1.98,> 10 µM,–,–
